The structures appear in SMILES notation.

This experiment has as its system survivin. In words: Human Apoptosis Proteome Profiler array, survivin. In kind it is cell-based. The conditions noted are these: HCT-116, 1 h exposure, 2 × IC50. From the text:
To explore in detail the molecular mechanism of apoptosis induction by compounds 3b and 3c, we employed Human Apoptosis Proteome Profiler arrays that allow quantification of apoptosis-related biomarkers (Figure 3C). […] Collectively, it can be concluded that silyl derivative 3b promotes cell death in HCT 116 cells by the alteration of expression levels of survivin and activation of caspase-3.
The Human Apoptosis Array Kit (R&D Systems, Abingdon, UK) was used to determine the levels of expression of apoptosis-related proteins. 2.5 × 10^5 HCT 116 wt cells were seeded on 100 mm dishes (Nunc, ThermoFisher, Waltham, MA, USA) and allowed to attach for 24 h. Then the medium was replaced with tested compounds at a concentration corresponding 2 × IC50 value and the cells were incubated in 37 °C. After 60 min the cells were lysed and the lysates were clarified by centrifugation for 30 min at 14,000× g. The total protein concentration was measured using the Protein Quantification Kit-Rapid (Sigma-Aldrich, Taufkirchen, Germany) according to the manufacturer’s instruction. The next steps followed instructions from the manufacturer of the Human Apoptosis Array Kit. The membranes were then scanned in the G:Box trans illuminator (Syngene, Cambridge, UK) and the protein expression levels were quantified by densitometric analysis using ImageJ software.

As for `CC(C)[Si](OC1OC(=O)C(Br)=C1Br)(C(C)C)C(C)C` (stereo not shown) [Compound 3b, 3,4-Dibromo-5-(triisopropylsilyloxy)-furan-2(5H)-one], the survivin expression entry is given as “down-regulation of survivin”.

The values are drawn from article PMC8620685, “Effect of Selected Silyl Groups on the Anticancer Activity of 3,4-Dibromo-5-Hydroxy-Furan-2(5H)-One Derivatives” (Pharmaceuticals, 2021).
